Patent US20120029187A1, “HALOALKYLSULFONANILIDE DERIVATIVE” (Nissan Chemical Industries, Ltd., priority 2009, published 2012)

What was measured:
Type in all cases: in vivo
[1] = system: barnyardgrass; assay: Test Example 2: herbicidal effects during the vegetation period under submerged conditions; conditions: treatment during the vegetation period under submerged conditions; dose 2.52 g/a
Procedure, shortened: (§1)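 Barnyardgrass, bulrush and ducksalad were co-sown in alluvial soil flooded to 4 cm and grown in a greenhouse at 25 to 30° C. At the 1- or 2-leaf stage, water-diluted emulsifiable concentrates went onto the water surface at set doses (g/a). Herbicidal effect was scored three weeks later on a graded scale.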

[2] = system: bulrush; assay: as above; conditions: treatment during the vegetation period under submerged conditions; dose 2.52 g/a
Procedure, shortened: as §1

[3] = system: ducksalad; assay: as above; conditions: treatment during the vegetation period under submerged conditions; dose 2.52 g/a
Procedure, shortened: as §1

[4] = system: barnyardgrass; assay: Test Example 1: herbicidal effects in preemergence treatment under submerged conditions; conditions: dose 2.52 g/a
Procedure, shortened: (§2)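 Alluvial soil flooded to 4 cm depth; barnyardgrass, bulrush and ducksalad sown and 2.5-leaf rice seedlings transplanted. Same day, water-diluted emulsifiable concentrates applied to the water surface at set doses (g/a). Kept at 25–30 °C in greenhouse; effects scored 0–5 by mortality after three weeks.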

[5] = system: bulrush; assay: as above; conditions: dose 2.52 g/a
Procedure, shortened: as §2

[6] = system: ducksalad; assay: as above; conditions: dose 2.52 g/a
Procedure, shortened: as §2

[7] = system: large crabgrass; assay: Test Example 3: herbicidal effects in soil treatment; conditions: dose 3.2 g/a
Procedure, shortened: (§3)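 Seeds were sown in sterilized diluvial soil and covered with about 1.5 cm of soil. Compounds, formulated as emulsifiable concentrates and diluted with water, were sprayed evenly over the soil surface at set doses in g/a. Herbicidal effect was scored on a rating scale three weeks later.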

[8] = system: Italian ryegrass; assay: as above; conditions: dose 3.2 g/a
Procedure, shortened: as §3

[9] = system: giant foxtail; assay: as above; conditions: dose 3.2 g/a
Procedure, shortened: as §3

[10] = system: velvetleaf; assay: as above; conditions: dose 3.2 g/a
Procedure, shortened: as §3

[11] = system: common ragweed; assay: as above; conditions: dose 3.2 g/a
Procedure, shortened: as §3

[12] = system: barnyardgrass; assay: as above; conditions: dose 3.2 g/a
Procedure, shortened: as §3

[13] = system: common chickweed; assay: as above; conditions: dose 3.2 g/a
Procedure, shortened: as §3

[14] = system: beadstraw; assay: as above; conditions: dose 3.2 g/a
Procedure, shortened: as §3

[15] = system: redroot pigweed; assay: as above; conditions: dose 3.2 g/a
Procedure, shortened: as §3

[16] = system: wild oat; assay: as above; conditions: dose 3.2 g/a
Procedure, shortened: as §3

[17] = system: common lambsquater; assay: as above; conditions: dose 3.2 g/a
Procedure, shortened: as §3

[18] = system: water foxtail; assay: as above; conditions: dose 3.2 g/a
Procedure, shortened: as §3

[19] = system: large crabgrass; assay: Test Example 4: herbicidal effect in foliage treatment; conditions: dose 3.2 g/a, three weeks after application
Procedure, shortened: (§4)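 Visual herbicidal scores on a graded scale were recorded three weeks after foliar application. Compounds went on as diluted emulsifiable concentrates at predetermined g/a to plants grown 14 days in a 25 to 30° C greenhouse.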

[20] = system: Italian ryegrass; assay: as above; conditions: dose 3.2 g/a, three weeks after application
Procedure, shortened: as §4

[21] = system: giant foxtail; assay: as above; conditions: dose 3.2 g/a, three weeks after application
Procedure, shortened: as §4

[22] = system: velvetleaf; assay: as above; conditions: dose 3.2 g/a, three weeks after application
Procedure, shortened: as §4

[23] = system: common ragweed; assay: as above; conditions: dose 3.2 g/a, three weeks after application
Procedure, shortened: as §4

[24] = system: posumbu knotweed; assay: as above; conditions: dose 3.2 g/a, three weeks after application
Procedure, shortened: as §4

[25] = system: barnyardgrass; assay: as above; conditions: dose 3.2 g/a, three weeks after application
Procedure, shortened: as §4

[26] = system: common chickweed; assay: as above; conditions: dose 3.2 g/a, three weeks after application
Procedure, shortened: as §4

[27] = system: beadstraw; assay: as above; conditions: dose 3.2 g/a, three weeks after application
Procedure, shortened: as §4

[28] = system: redroot pigweed; assay: as above; conditions: dose 3.2 g/a, three weeks after application
Procedure, shortened: as §4

[29] = system: wild oat; assay: as above; conditions: dose 3.2 g/a, three weeks after application
Procedure, shortened: as §4

[30] = system: common lambsquater; assay: as above; conditions: dose 3.2 g/a, three weeks after application
Procedure, shortened: as §4

[31] = system: water foxtail; assay: as above; conditions: dose 3.2 g/a, three weeks after application
Procedure, shortened: as §4

[32] = system: transplanted rice; assay: Test Example 1: preemergence treatment under submerged conditions, effect on crop; conditions: dose 2.52 g/a
Procedure, shortened: as §2

With `CCOC(=O)N(c1ccccc1CN1CC(C)(C)OCC1=O)S(=O)(=O)C(F)(F)F` [Compound I-16] the “A: barnyardgrass, herbicidal effect (evaluation scale 0-5)” value [1] was 5 (mortality of 90% or above (nearly complete death)), the “B: bulrush, herbicidal effect (evaluation scale 0-5)” value (“B: bulrush, herbicidal effect” below) [2] was 5 (mortality of 90% or above (nearly complete death)) and the “C: ducksalad, herbicidal effect (evaluation scale 0-5)” value (shortened to “C: ducksalad, herbicidal effect”) [3] was 5 (mortality of 90% or above (nearly complete death)). The “A: barnyardgrass, herbicidal effect (evaluation scale 0-5)” value [4] was 5 (mortality of 90% or above (nearly complete death)), the “B: bulrush, herbicidal effect” value [5] was 5 (mortality of 90% or above (nearly complete death)) and the “C: ducksalad, herbicidal effect” value [6] was 5 (mortality of 90% or above (nearly complete death)). The “D: large crabgrass, herbicidal effect (evaluation scale 0-5)” value [7] was 5 (mortality of 90% or above (nearly complete death)), the “H: Italian ryegrass, herbicidal effect (evaluation scale 0-5)” value [8] was 4 (mortality of at least 70% and less than 90%) and the “E: giant foxtail, herbicidal effect (evaluation scale 0-5)” value [9] was 5 (mortality of 90% or above (nearly complete death)). For the same molecule, the “I: velvetleaf, herbicidal effect (evaluation scale 0-5)” value [10] was 5 (mortality of 90% or above (nearly complete death)), the “J: common ragweed, herbicidal effect (evaluation scale 0-5)” value [11] was 5 (mortality of 90% or above (nearly complete death)) and the “A: barnyardgrass, herbicidal effect (evaluation scale 0-5)” value [12] was 5 (mortality of 90% or above (nearly complete death)). The “N: common chickweed, herbicidal effect (evaluation scale 0-5)” value [13] was 5 (mortality of 90% or above (nearly complete death)), the “O: beadstraw, herbicidal effect (evaluation scale 0-5)” value [14] was 0 (mortality of less than 5% (almost ineffective)) and the “K: redroot pigweed, herbicidal effect (evaluation scale 0-5)” value [15] was 5 (mortality of 90% or above (nearly complete death)). The “F: wild oat, herbicidal effect (evaluation scale 0-5)” value [16] was 3 (mortality of at least 40% and less than 70%), the “L: common lambsquater, herbicidal effect (evaluation scale 0-5)” value [17] was 3 (mortality of at least 40% and less than 70%) and the “G: water foxtail, herbicidal effect (evaluation scale 0-5)” value [18] was 5 (mortality of 90% or above (nearly complete death)). The “D: large crabgrass, herbicidal effect” value [19] was 4 (mortality of at least 70% and less than 90%), the “H: Italian ryegrass, herbicidal effect” value [20] was 4 (mortality of at least 70% and less than 90%) and the “E: giant foxtail, herbicidal effect” value [21] was 4 (mortality of at least 70% and less than 90%). For the same molecule, the “I: velvetleaf, herbicidal effect” value [22] was 5 (mortality of 90% or above (nearly complete death)), the “J: common ragweed, herbicidal effect” value [23] was 5 (mortality of 90% or above (nearly complete death)) and the “M: posumbu knotweed, herbicidal effect” value [24] was 3 (mortality of at least 40% and less than 70%). The “A: barnyardgrass, herbicidal effect” value [25] was 5 (mortality of 90% or above (nearly complete death)), the “N: common chickweed, herbicidal effect” value [26] was 5 (mortality of 90% or above (nearly complete death)) and the “O: beadstraw, herbicidal effect” value [27] was 3 (mortality of at least 40% and less than 70%). The “K: redroot pigweed, herbicidal effect” value [28] was 2 (mortality of at least 20% and less than 40%), the “F: wild oat, herbicidal effect” value [29] was 3 (mortality of at least 40% and less than 70%) and the “L: common lambsquater, herbicidal effect” value [30] was 2 (mortality of at least 20% and less than 40%). For the same molecule, the “G: water foxtail, herbicidal effect” value [31] was 5 (mortality of 90% or above (nearly complete death)) and the “a: transplanted rice, effect on crop (evaluation scale 0-5)” value [32] was 2 (mortality of at least 20% and less than 40%).

For `CCCCOC(=O)N(c1ccccc1CN1COC(C)(C)CC1=O)S(=O)(=O)C(F)(F)F` [II-25], the “A: barnyardgrass, herbicidal effect (evaluation scale 0-5)” value [1] was 5 (mortality of 90% or above (nearly complete death)), the “B: bulrush, herbicidal effect” value [2] was 5 (mortality of 90% or above (nearly complete death)) and the “C: ducksalad, herbicidal effect” value [3] was 5 (mortality of 90% or above (nearly complete death)). The “A: barnyardgrass, herbicidal effect (evaluation scale 0-5)” value [4] was 5 (mortality of 90% or above (nearly complete death)), the “B: bulrush, herbicidal effect” value [5] was 5 (mortality of 90% or above (nearly complete death)) and the “C: ducksalad, herbicidal effect” value [6] was 5 (mortality of 90% or above (nearly complete death)). For the same molecule, the “D: large crabgrass, herbicidal effect (evaluation scale 0-5)” value [7] was 4 (mortality of at least 70% and less than 90%), the “H: Italian ryegrass, herbicidal effect (evaluation scale 0-5)” value [8] was 1 (mortality of at least 5% and less than 20%) and the “E: giant foxtail, herbicidal effect (evaluation scale 0-5)” value [9] was 3 (mortality of at least 40% and less than 70%). The “I: velvetleaf, herbicidal effect (evaluation scale 0-5)” value [10] was 5 (mortality of 90% or above (nearly complete death)), the “J: common ragweed, herbicidal effect (evaluation scale 0-5)” value [11] was 4 (mortality of at least 70% and less than 90%) and the “A: barnyardgrass, herbicidal effect (evaluation scale 0-5)” value [12] was 4 (mortality of at least 70% and less than 90%). For the same molecule, the “N: common chickweed, herbicidal effect (evaluation scale 0-5)” value [13] was 4 (mortality of at least 70% and less than 90%), the “O: beadstraw, herbicidal effect (evaluation scale 0-5)” value [14] was 5 (mortality of 90% or above (nearly complete death)) and the “K: redroot pigweed, herbicidal effect (evaluation scale 0-5)” value [15] was 0 (mortality of less than 5% (almost ineffective)). The “F: wild oat, herbicidal effect (evaluation scale 0-5)” value [16] was 0 (mortality of less than 5% (almost ineffective)), the “L: common lambsquater, herbicidal effect (evaluation scale 0-5)” value [17] was 0 (mortality of less than 5% (almost ineffective)) and the “G: water foxtail, herbicidal effect (evaluation scale 0-5)” value [18] was 5 (mortality of 90% or above (nearly complete death)). For the same molecule, the “D: large crabgrass, herbicidal effect” value [19] was 5 (mortality of 90% or above (nearly complete death)), the “H: Italian ryegrass, herbicidal effect” value [20] was 0 (mortality of less than 5% (almost ineffective)) and the “E: giant foxtail, herbicidal effect” value [21] was 5 (mortality of 90% or above (nearly complete death)). For the same molecule, the “I: velvetleaf, herbicidal effect” value [22] was 4 (mortality of at least 70% and less than 90%), the “J: common ragweed, herbicidal effect” value [23] was 3 (mortality of at least 40% and less than 70%) and the “M: posumbu knotweed, herbicidal effect” value [24] was 1 (mortality of at least 5% and less than 20%). For the same molecule, the “A: barnyardgrass, herbicidal effect” value [25] was 5 (mortality of 90% or above (nearly complete death)), the “N: common chickweed, herbicidal effect” value [26] was 4 (mortality of at least 70% and less than 90%) and the “O: beadstraw, herbicidal effect” value [27] was 5 (mortality of 90% or above (nearly complete death)). For the same molecule, the “K: redroot pigweed, herbicidal effect” value [28] was 0 (mortality of less than 5% (almost ineffective)), the “F: wild oat, herbicidal effect” value [29] was 0 (mortality of less than 5% (almost ineffective)) and the “L: common lambsquater, herbicidal effect” value [30] was 1 (mortality of at least 5% and less than 20%). For the same molecule, the “G: water foxtail, herbicidal effect” value [31] was 5 (mortality of 90% or above (nearly complete death)) and the “a: transplanted rice, effect on crop (evaluation scale 0-5)” value [32] was 0 (mortality of less than 5% (almost ineffective)).
